# Data reported in patent US20250346592A1 (Celgene Corporation, priority 2022, published 2025).
# Molecular target: hPAD4 enzyme (Homo sapiens (Human), UniProt Q9UM07)
# Assay: RFMS2 assay (RapidFire mass spectrometry, TSTGGRQGSHH peptide substrate)
# Assay type: biochemical
# Details: 35 nM recombinant human PAD4, 500 μM TSTGGRQGSHH peptide, 30 minutes at room temperature; read-out: RFMS 2 IC50
# Procedure, shortened: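 IC50 derived from RapidFire LC-MS/MS (positive ESI MRM) of substrate versus product after a 30 min room-temperature reaction stopped with 10% formic acid. Reaction contained 35 nM human PAD4, 500 μM peptide, 2 mM CaCl2, 5 mM DTT at pH 7.4, and compounds diluted 3-fold from 20 μM.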
# hPAD4 enzyme, sequence (Q9UM07 whole entry): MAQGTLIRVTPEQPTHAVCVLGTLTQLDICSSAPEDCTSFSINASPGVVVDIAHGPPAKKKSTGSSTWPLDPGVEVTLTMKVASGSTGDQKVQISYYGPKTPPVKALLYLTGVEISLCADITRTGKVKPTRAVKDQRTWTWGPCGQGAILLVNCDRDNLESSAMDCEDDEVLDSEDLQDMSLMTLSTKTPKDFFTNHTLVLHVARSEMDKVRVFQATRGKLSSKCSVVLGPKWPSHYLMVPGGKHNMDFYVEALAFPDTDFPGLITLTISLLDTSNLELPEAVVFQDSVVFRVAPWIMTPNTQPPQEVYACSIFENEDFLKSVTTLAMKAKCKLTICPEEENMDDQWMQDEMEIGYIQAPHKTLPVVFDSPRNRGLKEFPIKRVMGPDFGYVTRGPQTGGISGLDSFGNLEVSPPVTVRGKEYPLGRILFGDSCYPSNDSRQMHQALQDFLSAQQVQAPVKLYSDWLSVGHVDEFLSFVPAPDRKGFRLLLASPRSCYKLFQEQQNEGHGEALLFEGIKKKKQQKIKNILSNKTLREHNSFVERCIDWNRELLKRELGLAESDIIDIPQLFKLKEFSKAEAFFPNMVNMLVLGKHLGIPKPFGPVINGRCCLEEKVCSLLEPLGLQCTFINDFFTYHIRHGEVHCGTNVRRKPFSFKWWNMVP
row,IC50 [nM],SMILES
1,101 to 500,"Cn1c(-c2cc3cccc(OCc4cnco4)c3n2CC2CC2)nc2cc3c(cc21)CCN(C[C@H](N)CF)C3=O [Example 166, (S)-6-(2-amino-3-fluoropropyl)-2-(1-(cyclopropyl-methyl)-7-(oxazol-5-ylmethoxy)-1H-indol-2-yl)-1-methyl-1,6,7,8-tetrahydro-5H-imidazo[4,5-g] isoquinolin-5-one]"
2,> 1000,"C[C@@H](N)CN1CCc2cc3c(cc2C1=O)nc(-c1cc2ccccc2n1CC(C)(C)O)n3C [Example 92, (R)-6-(2-aminopropyl)-2-(1-(2-hydroxy-2-methylpropyl)-1H-indol-2-yl)-1-methyl-1,6,7,8-tetrahydro-5H-imidazo[4,5-g]isoquinolin-5-one]"
3,11 to 100,"Cn1c(-c2cc3cccc(OCCn4cccn4)c3n2CC2CC2)nc2cc3c(cc21)CCN(C[C@H](N)CF)C3=O [Example 155, (S)-2-(7-(2-(1H-pyrazol-1-yl)ethoxy)-1-(cyclopropyl-methyl)-1H-indol-2-yl)-6-(2-amino-3-fluoropropyl)-1-methyl-1,6,7,8-tetrahydro-5H-imidazo[4,5-g] isoquinolin-5-one]"
4,> 1000,"CCCN[C@H](C)CN1CCc2cc3c(cc2C1=O)nc(-c1cc2ccccc2n1CC1CC1)n3C [Example 4, (R)-2-(1-(cyclopropylmethyl)-1H-indol-2-yl)-1-methyl-6-(2-(propylamino)propyl)-1,6,7,8-tetrahydro-5H-imidazo[4,5-g]isoquinolin-5-one]"
5,501 to 1000,"COCCn1c(-c2nc3cc4c(cc3n2C)CCN(C[C@H](N)CF)C4=O)cc2ccc(Cl)nc21 [Example 104, (S)-6-(2-amino-3-fluoropropyl)-2-(6-chloro-1-(2-methoxyethyl)-1H-pyrrolo[2,3-b]pyridin-2-yl)-1-methyl-1,6,7,8-tetrahydro-5H-imidazo[4,5-g]isoquinolin-5-one]"
6,101 to 500,"Cn1c(-c2cc3cccc(OCc4ccon4)c3n2CC2CC2)nc2cc3c(cc21)CCN(C[C@H](N)CF)C3=O [Example 167, (S)-6-(2-amino-3-fluoropropyl)-2-(1-(cyclopropylmethyl)-7-(isoxazol-3-ylmethoxy)-1H-indol-2-yl)-1-methyl-1,6,7,8-tetrahydro-5H-imidazo[4,5-g]isoquinolin-5-one]"
7,101 to 500,"Cn1c(-c2cc3cccc(OCC4COC4)c3n2CC2CC2)nc2cc3c(cc21)CCN(C[C@H](N)CF)C3=O [Example 149, (S)-6-(2-amino-3-fluoropropyl)-2-(1-(cyclopropylmethyl)-7-(oxetan-3-ylmethoxy)-1H-indol-2-yl)-1-methyl-1,6,7,8-tetrahydro-5H-imidazo[4,5-g]isoquinolin-5-one]"
8,101 to 500,"CC(C)c1ccc2cc(-c3nc4cc5c(cc4n3C)CCN(C[C@@H](C)N)C5=O)n(CC3CC3)c2c1 [Example 38, (R)-6-(2-aminopropyl)-2-(1-(cyclopropylmethyl)-6-isopropyl-1H-indol-2-yl)-1-methyl-1,6,7,8-tetrahydro-5H-imidazo[4,5-g]isoquinolin-5-one]"
9,101 to 500,"CN[C@H](C)CN1CCc2cc3c(cc2C1=O)nc(-c1cc2cccc(OC)c2n1CC1CC1)n3C [Example 37, (R)-2-(1-(cyclopropylmethyl)-7-methoxy-1H-indol-2-yl)-1-methyl-6-(2-(methylamino)propyl)-1,6,7,8-tetrahydro-5H-imidazo[4,5-g]isoquinolin-5-one]"
10,101 to 500,"COc1c(F)ccc2cc(-c3nc4cc5c(cc4n3C)CCN(C[C@H](N)CF)C5=O)n(CC3CC3)c12 [Example 66, (S)-6-(2-amino-3-fluoropropyl)-2-(1-(cyclopropylmethyl)-6-fluoro-7-methoxy-1H-indol-2-yl)-1-methyl-1,6,7,8-tetrahydro-5H-imidazo[4,5-g]isoquinolin-5-one]"
11,101 to 500,"Cn1c(-c2cc3cccc(OCc4cccnn4)c3n2CC2CC2)nc2cc3c(cc21)CCN(C[C@H](N)CF)C3=O [Example 183, (S)-6-(2-amino-3-fluoropropyl)-2-(1-(cyclopropylmethyl)-7-(pyridazin-3-ylmethoxy)-1H-indol-2-yl)-1-methyl-1,6,7,8-tetrahydro-5H-imidazo[4,5-g]isoquinolin-5-one]"
12,101 to 500,"Cc1cccc2cc(-c3nc4cc5c(cc4n3C)CCN(C[C@@H](C)N)C5=O)n(CC3CCC3)c12 [Example 89, (R)-6-(2-aminopropyl)-2-(1-(cyclobutylmethyl)-7-methyl-1H-indol-2-yl)-1-methyl-1,6,7,8-tetrahydro-5H-imidazo[4,5-g]isoquinolin-5-one]"
13,101 to 500,"COc1cccc2cc(-c3nc4cc5c(cc4n3C)CCN(C[C@H](N)CF)C5=O)n(Cc3cnco3)c12 [Example 117, (S)-6-(2-amino-3-fluoropropyl)-2-(7-methoxy-1-(oxazol-5-ylmethyl)-1H-indol-2-yl)-1-methyl-1,6,7,8-tetrahydro-5H-imidazo[4,5-g]isoquinolin-5-one]"
14,11 to 100,"Cc1ncn(CCOc2cccc3cc(-c4nc5cc6c(cc5n4C)CCN(C[C@H](N)CF)C6=O)n(CC4CC4)c23)n1 [Example 164, (S)-6-(2-amino-3-fluoropropyl)-2-(1-(cyclopropyl-methyl)-7-(2-(3-methyl-1H-1,2,4-triazol-1-yl)ethoxy)-1H-indol-2-yl)-1-methyl-1,6,7,8-tetrahydro-5H-imidazo[4,5-g]isoquinolin-5-one]"
15,> 1000,"C[C@@H](O)CN1CCc2cc3c(cc2C1=O)nc(-c1cc2ccccc2n1CC1CC1)n3C [Example 85, (R)-2-(1-(cyclopropylmethyl)-1H-indol-2-yl)-6-(2-hydroxypropyl)-1-methyl-1,6,7,8-tetrahydro-5H-imidazo[4,5-g]isoquinolin-5-one]"
16,> 1000,"CCn1c(-c2nc3cc4c(cc3n2C)CCN(C[C@@H](C)N)C4=O)cc2cccnc21 [Example 79, (R)-6-(2-aminopropyl)-2-(1-ethyl-1H-pyrrolo[2,3-b]pyridin-2-yl)-1-methyl-1,6,7,8-tetrahydro-5H-imidazo[4,5-g]isoquinolin-5-one]"
17,501 to 1000,"COc1ccc2cc(-c3nc4cc5c(c(F)c4n3C)CCN(C[C@H](N)CF)C5=O)n(CC3CC3)c2c1 [Example 239, (S)-6-(2-amino-3-fluoropropyl)-2-(1-(cyclopropylmethyl)-6-methoxy-1H-indol-2-yl)-9-fluoro-1-methyl-1,6,7,8-tetrahydro-5H-imidazo[4,5-g]isoquinolin-5-one]"
18,101 to 500,"C[C@@H](N)CN1CCc2cc3c(cc2C1=O)nc(-c1cc2ccccc2n1Cc1ccccn1)n3C [Example 84, (R)-6-(2-aminopropyl)-1-methyl-2-(1-(pyridin-2-ylmethyl)-1H-indol-2-yl)-1,6,7,8-tetrahydro-5H-imidazo[4,5-g]isoquinolin-5-one]"
19,101 to 500,"Cc1ncnn1CCOc1cccc2cc(-c3nc4cc5c(cc4n3C)CCN(C[C@H](N)CF)C5=O)n(CC3CC3)c12 [Example 163, (S)-6-(2-amino-3-fluoropropyl)-2-(1-(cyclopropylmethyl)-7-(2-(5-methyl-1H-1,2,4-triazol-1-yl)ethoxy)-1H-indol-2-yl)-1-methyl-1,6,7,8-tetrahydro-5H-imidazo[4,5-g]isoquinolin-5-one]"
20,101 to 500,"C[C@@H](N)CN1CCc2cc3c(cc2C1=O)nc(-c1cc2ccccc2n1CCC1CC1)n3C [Example 77, (R)-6-(2-aminopropyl)-2-(1-(2-cyclopropylethyl)-1H-indol-2-yl)-1-methyl-1,6,7,8-tetrahydro-5H-imidazo[4,5-g]isoquinolin-5-one]"
